{"source": "patent US20120196918A1", "about": "“PREVENTING ISLET INFLAMMATION AND DYSFUNCTION AND MAINTAINING PROPER GLUCOSE LEVELS BY CONTROLLING eIF5A AND ITS HYPUSINATION” (priority 2009, published 2012)", "key": {"[1]": {"system": "STZ-treated C57BL/6J mice", "experiment": "Multiple low-dose streptozotocin (STZ) diabetes model in C57BL/6J mice", "assay_type": "in vivo, mouse", "procedure": "(§1) To test the role of eIF5A in cytokine-mediated islet dysfunction, efforts were made to identify a mouse model of islet inflammation. The multiple low dose streptozotocin (STZ) model, in which mice are subjected to five daily intraperitoneal doses (at 55 mg/kg body weight) of STZ, is considered to provoke local islet inflammation and cytokine release, in part through the recruitment of CD11c+ dendritic cells that release pro-inflammatory cytokines in the area of STZ-induced cellular destruction (27 and 28).\nC57BL/6J mice were injected intraperitoneally with either stabilized siRNA against eIF5A (si-eIF5A) or control siRNA (si-Control) daily for three days, then subjected to the multiple low-dose STZ protocol (see schematic in FIG. 1a). […] The effect of administering si-eIF5A on islet viability following STZ treatment was determined by performing immunohistochemical analysis of the pancreata of mice. […] To quantify the differences in islet mass between STZ-treated and untreated animals, morphometry of insulin-stained pancreatic sections was performed.\nBased on the observed data, if hypusination of eIF5A by DHS is required for cytokine responsiveness in islets, then inhibition of DHS in vivo should protect against low dose STZ diabetes. To test this, C57BL/6J mice were treated with GC7 or vehicle and then subjected to low dose STZ injections. GC7 was delivered in one of two different ways: either by daily bolus intraperitoneal injections (4 mg/kg/day) or by continuous subcutaneous delivery (40 μg/kg/h) using implanted osmotic pumps. A protocol similar to that shown in FIG. 1A was employed in these studies, with GC7 injections or pump implants starting 3 days prior to STZ injections.\nSmall interfering RNA (siRNA) studies: Stabilized siRNAs for intraperitoneal injections were custom synthesized by Dharmacon using the siSTABLE® modification. Groups of 10 week-old C57BL/6J male mice (from Jackson Labs) received daily intraperitoneal injections of 1.6 mg/kg siRNA prepared in 0.9% saline or vehicle alone (0.9% saline) for 3 days. For in vitro studies, islets from each group of injected mice were harvested on the fourth day and pooled prior to analysis. Injections with each siRNA were performed on at least 3 different occasions. siRNA sequences were as follows: siControl, 5′-[…]-3′; si-eIF5A, 5′-[…]-3′. For siRNA studies in the rat β cell-derived line INS-1 (832/13), cells were transfected with a SMART Pool® siRNA against rat eIF5A1 (Dharmacon, #L-083855-01) or non-targeting control siRNA #1 (Dharmacon) using DharmaFECT® transfection reagent (Dharmacon).\nImmunostaining and morphometric assessment of β cell mass: Immunostaining of pancreatic sections proceeded as described previously (72). For assessment of islet cell death in pancreatic sections, the technique of terminal deoxynucleotidyl transferase dUTP nick end labeling (TUNEL) was performed using biotinylated 16-dUTP (Roche) and Texas Red Neutravidin (Invitrogen). Digital images of each islet at 40× magnification were acquired using an Axio-Observer D1 microscope (Zeiss) inverted fluorescent microscope equipped with a high-resolution color camera. TUNEL-positive/insulin-positive nuclei were counted manually by an observer blinded to sample identity, and data were re-coded as the average number of TUNEL-positive nuclei per islet. β cell mass was calculated as described previously (73), but with some modifications. Briefly, pancreata from 3 mice per treatment group were rapidly dissected and weighed, fixed in 4% paraformaldehyde, paraffin-embedded, and longitudinally sectioned. Three sections/pancreas (approx. 75 μm apart) were subsequently immunostained for insulin and counterstained with hematoxylin as described (74), and digital images of each section at 10× magnification were acquired on an Axio-Observer Z1 microscope (Zeiss) fitted with an AxioCam high resolution color camera. […]"}, "[2]": {"system": "iNOS", "conditions": "cited from earlier work"}, "[3]": {"system": "eIF5A", "experiment": "eIF5A nuclear-to-cytoplasmic translocation in INS-1 cells (immunofluorescence)", "assay_type": "cell-based, rat", "conditions": "pretreatment, then cytokines 4 h", "procedure": "Given the striking retention of Nos2 transcripts in the absence of eIF5A-Hyp, it was of interest to determine whether the intracellular distribution of eIF5A accounts for its effect on Nos2 nucleo-cytoplasmic shuttling. Immunofluorescence of eIF5A in fixed INS-1 cells, were thus performed. […] Upon treatment of cells with cytokines, there was a shift in the eIF5A distribution pattern from the nucleus to the cytoplasm.\nCytokine and inhibitor incubation studies: For cytokine incubation assays, a 1000× cocktail of cytokines containing 5 μg/ml IL1β, 10 μg/ml TNFα, and 100 μg/ml IFNγ (all prepared in 0.1% BSA in Tris-buffered saline) was applied at 1× final concentration to groups of 50 islets or 1×10^6 INS-1 (832/13) cells for a total of 4 h at 37° C. For GC7 incubation studies, GC7 was prepared at a stock concentration of 125 mM in 10 mM acetic acid and applied to cultures of 50 islets or 1×10^6 INS-1 cells to obtain the final concentrations indicted in the figures. […]\nImmunofluorescence: Immunofluorescence of INS-1 cells proceeded essentially as described previously (71), using primary antibodies to eIF5A1 and secondary anti-mouse Alexa-488-conjugated antibody (Invitrogen), or by direct visualization of GFP fusion proteins at 488 nm. […] Quantitation of cytoplasic-to-nuclear ratios of eIF5A staining was performed using Axio-Vision Software, v. […]"}, "[4]": {"system": "Nos2 mRNA", "experiment": "Nuclear export of Nos2 mRNA, subcellular fractionation of cytokine-treated INS-1 cells", "assay_type": "cell-based, rat", "procedure": "Subcellular fractionation studies: Nuclear and cytoplasmic fractions of 1×10^6 cytokine-treated INS-1 cells exposed to vehicle, leptomycin B (20 ng/ml), or GC7 (100 μM) were prepared using the method of Dignam, et al. (76). Total RNA was isolated from nuclear and cytoplasmic fractions using the RNeasy® RNA isolation kit (Qiagen).\nQuantitative RT-PCR: Five micrograms of total RNA from islets or INS-1 cells were reverse-transcribed as detailed previously (77). cDNA was subjected to quantitative PCR using SYBR Green-based technology and published primers for mouse Ins1/2 pre-mRNA (78) and QuantiTech® primers (Qiagen) for all other mouse genes. The Assay on Demand® kit (Applied Biosystems) was used to amplify rat genes in INS-1 cells and human genes in human islets. Thermal cycling was performed according to manufacturer's instructions, and the identity of each PCR product was verified by automated sequencing. All samples were corrected for total input RNA as quantitated by an Experion® (Bio-Rad) bioanalyzer. All data represent the average of triplicate determinations from at least 3 independent experiments."}, "[5]": {"system": "iNOS", "experiment": "Cytokine-induced iNOS protein in INS-1 cells (immunoblot)", "assay_type": "cell-based, rat", "conditions": "increasing inhibitor concentrations overnight, cytokines 4 h", "text": "eIF5A1 and eIF5A2 are the only proteins known to contain the unique amino acid hypusine at position 50. Hypusine is formed as a posttranslational modification of residue Lys50 in a reaction requiring spermidine and catalyzed by the sequential actions of the enzymes deoxyhypusine synthase (DHS) and deoxyhypusine hydroxylase (DOHH) (Chen, K Y, and Liu, A Y. Biochemistry and function of hypusine formation on eukaryotic initiation factor 5A. Biol Signals. 1997; 6(3):105-109). […] To further investigate the mechanism of eIF5A-regulated translation of Nos2, studies were performed following overnight incubation of cells with mimosine (an inhibitor of DOHH) and GC7 (an inhibitor of DHS). […] Similar data using GC7 were obtained in primary mouse islets (data not shown) and in human islets (FIGS. 5F and 5G).\nBecause GC7 is known to be inactivated by the action amine oxidases, which are abundant in serum, typical studies with GC7 in the literature have used aminoguanidine to inhibit amine oxidases (16). […] To rule out possible adverse effects of GC7 on cell viability, quantitative 2 color fluorescence analysis of live (calcein-AM-positive) and dead (ethidium homodimer-1-positive) cells were performed using fluorescence cytometry.\nCytokine and inhibitor incubation studies: For cytokine incubation assays, a 1000× cocktail of cytokines containing 5 μg/ml IL1β, 10 μg/ml TNFα, and 100 μg/ml IFNγ (all prepared in 0.1% BSA in Tris-buffered saline) was applied at 1× final concentration to groups of 50 islets or 1×10^6 INS-1 (832/13) cells for a total of 4 h at 37° C. For GC7 incubation studies, GC7 was prepared at a stock concentration of 125 mM in 10 mM acetic acid and applied to cultures of 50 islets or 1×10^6 INS-1 cells to obtain the final concentrations indicted in the figures. Where needed, GC7 was protected from amine oxidases in serum by addition of 1 mM aminoguanidine (Sigma). Cells were incubated with GC7 overnight (˜16 h) at 37° C. prior to analysis. Cells were exposed to Leptomycin B (Cayman Chemicals) for 3 hours; leptomycin B was prepared at a 1000× stock concentration of 20 μg/ml in ethanol.\nImmunoblot and nitrite and iNOS assays: Whole cell extracts were resolved by electrophoresis on a 4-20% SDS-polyacrylamide gel, followed by immunoblot using anti-eIF5A1, anti-eIF5A2, anti-iNOS, anti-GFP, or anti-actin primary antibodies and fluorophore-labeled secondary antibodies. Immunoblots were visualized using the Li-Cor® Odyssey® system (Li-Cor Biosciences) and quantitated by scanning fluorometry using Odyssey Imaging v. […] Nitrite was quantitated by measuring nitric oxide-derived nitrite from INS-1 cell culture medium using the Griess reagent (Promega) according to the manufacturer's recommendations. iNOS activity was measured using a commercially available kit (Cayman)."}, "[6]": {"system": "STZ-treated NOD/Scid-(IL-2Rγ-null) mice", "experiment": "Multiple low-dose STZ model in immune-deficient NOD/Scid-(IL-2Rγ-null) mice", "assay_type": "in vivo, mouse", "conditions": "multiple low-dose STZ (data not shown for si-eIF5A)", "procedure": "as §1\nAs noted, low-dose STZ-induced islet dysfunction involves at least two mechanisms: an inflammatory mechanism that is dependent upon cytokine release from immune cells and a direct toxic mechanism on the islet itself. […] Next, islets from 3 C57BL/6J mice per group 24 h after the initial STZ treatment were isolated and pooled and their iNOS content determined by immunoblot. […]\nStudies in vivo: Daily STZ injections to groups of 10 week-old C57BL/6J and NOD/Scid-(IL-2Rγ-null) mice proceeded as described previously (30) at a dose of 55 mg STZ per kg mouse weight for 5 days. […] Serum was analyzed using a Luminex system (Millipore) and a mouse cytokine/chemokines Panel 1 mutliplex kit (Millipore)."}}, "data": [{"molecule": "5′-AAAGUCGACCUUCAGUAAGGA-3′ (stabilizing modifications, further chemistry not given here) [si-Control, control siRNA, stabilized]", "values": [{"measurement": "average fasting blood glucose", "setting": "[1]; siRNA 1.6 mg/kg i.p. daily for 3 days, then multiple low-dose STZ, day 7", "result": 159, "unit": "mg/dL"}, {"measurement": "reduction of β cell mass compared to non-STZ-treated controls", "setting": "[1]; siRNA i.p., multiple low-dose STZ, morphometry of insulin-stained sections", "result": 2.8, "unit": "fold"}]}, {"molecule": "N=C(N)NN", "note": "[aminoguanidine]", "values": [{"measurement": "inhibition of iNOS catalytic activity (literature)", "setting": "[2]", "result": "effective inhibitor of iNOS catalytic activity"}]}, {"molecule": "CCC(=C/[C@H](C)C/C=C/C(C)=C/[C@@H](C)C(=O)[C@@H](C)[C@H](O)[C@@H](C)C/C(C)=C/C(=O)O)/C=C/[C@@H]1OC(=O)C=C[C@@H]1C", "note": "[leptomycin B]", "values": [{"measurement": "cytokine-induced translocation of eIF5A", "setting": "[3]", "result": "failed to induce the nuclear to cytoplasmic translocation of eIF5A"}, {"measurement": "Nos2 export blocked", "setting": "[4]; cytokine-treated INS-1 cells", "result": "about 50%"}, {"measurement": "distribution of mRNAs between nuclear and cytoplasmic fractions", "setting": "[4]; cytokine-treated, GC7 100 μM overnight or leptomycin B 20 ng/ml 3 h", "result": "relative retention of Nos2, Actb, and Nfkb1 (but not Gapdh) in the nuclear fraction"}]}, {"molecule": "NC(Cn1ccc(=O)c(O)c1)C(=O)O", "note": "(stereo not shown) [mimosine]", "values": [{"measurement": "iNOS protein after cytokines", "setting": "[5]", "result": "dose-dependent attenuation"}]}, {"molecule": "IL-1Ra: interleukin-1 receptor antagonist, the IL-1Ra anakinra", "values": [{"measurement": "glucose intolerance in IPGTT with IL-1Ra", "setting": "[1]; concurrent IL-1Ra treatment, multiple low-dose STZ", "result": "attenuated glucose intolerance only in immune-competent mice"}, {"measurement": "serum IL-6 levels", "setting": "[1]; concurrent treatment with STZ", "result": "dramatic drop in serum IL-6 levels"}, {"measurement": "protection against glucose intolerance", "setting": "[6]", "result": "did not protect against glucose intolerance"}]}]}
